Data on 4 molecules can be found in patent US10578608B1, “Tools to detect, track and target cancer cells in vivo” (The Regents of the University of California, priority 2015, dated 2020).

One data set has as its system blast crisis CML. The data set can be described thus: In vivo identification of therapy-resistant residual leukemia cells after Gleevec. Details: species or system mouse. The following applies: Gleevec 150 mg/kg daily oral gavage, NSG mice. How it is done: (FIG. 41A) The strategy used to track residual leukemia cells in vivo. KLS cells isolated from Msi2^GFP/Actb-DsRed mice were co-infected with BCR-ABL1 and NUP98-HOXA9 and subsequently transplanted into NOD-Scid IL2Rg^null (NSG) recipient mice. Fourteen days post-transplantation (D14), recipient mice were treated daily with Gleevec or vehicle alone (control) for […] and analyzed by flow cytometry on D20. (FIG. 41B) Average frequency of Msi2+ (% GFP^+) leukemia cells determined at various anatomic sites from mice with blast crisis CML (n=3 mice). (FIG. 41C) Extent of residual disease at different anatomic sites following Gleevec treatment.
To test this, REM2 mice were crossed with mice expressing dsRed under the control of a ubiquitous promoter (Vintersten et al., 2004). […]
To determine sites that harbor therapy-resistant cells, bone marrow-derived KLS cells were isolated and sorted from Msi2^GFP/Acb-DsRed mice and cultured in X-Vivo 15 media (Lonza) supplemented with 50 μM 2-mercaptoethanol, 10% (vol/vol) fetal bovine serum, SCF (100 ng/ml, R&D Systems) and TPO (20 ng/ml, R&D Systems). […] Fifteen days post-transplantation (D15), recipient mice were treated daily with Gleevec (150 mg/kg) or H2O (control) via oral gavage for five consecutive days (D15 to D19) and analyzed by flow cytometry on D20.

For the next data set, the system named is blast crisis CML cells. Conditions: versus 2-fold difference without treatment.
Another data set concerns MSI1 RNA. Nature of the data set: MSI1 expression after ASO free uptake (q-RT-PCR). It counts as cell-based, human. Conditions: 24 hours, MIA PaCa-2 cells. How it is done: (FIG. 8 F to FIG. 8H) Real time PCR analysis of Msi expression following ASO free uptake in MIA PaCa-2 cells. MIA PaCa-2 cells were treated with 2 Gen 2.5 cEt ASOx target MSI1 or Control Gen 2.5 ASO for 24 hours, RNA was isolated and target knockdown (MSI1 RNA level) was determined by q-RT-PCR. IC50 values for each ASO were calculated using GraphPad Prism software; each treatment condition was performed in triplicate. (FIG. 8I) Colony formation assay in MSI1 ASO-treated MIA PaCa-2 cells after weekly delivery of control or MSI1 ASOs; colonies were counted after 4 weeks; n=3 for each ASO tested. (FIG. 8J) In vivo tracking of tumor volume in MSI1 ASO treated MIA PaCa-2 tumors with intratumoral delivery of control or MSI1 ASOs every day for 5 days followed by 2 days off; n=5 for each ASO tested. Nonlinear regression was used to determine the difference in slope between Control ASO and MSI1-ASO-1 (p<0.001). (FIG. 8K) In vivo tracking of tumor volume of primary KP^f/fC tumors with intratumoral delivery of control ASO or MSI1 ASOs following tumor establishment (n=4). […]
To identify human Msi ASO inhibitors, rapid throughput screens were performed to identify effective ASOs as previously described (Wang, J. C. Y. & Dick, J. E. Cancer stem cells: lessons from leukemia. Trends in Cell Biology 15, 494-501 (2005); Reya, T., Morrison, S. J., Clarke, M. F. & Weissman, I. L. Stem cells, cancer, and cancer stem cells. Nature 414(6859):105-11 (2001); Carroll, J. B. et al. Potent and Selective Antisense Oligonucleotides Targeting Single-Nucleotide Polymorphisms in the Huntington Disease Gene/Allele-Specific Silencing of Mutant Huntingtin. Molecular Therapy 19, 2178-2185 (2009); Samuel, V. T. et al. Targeting foxo1 in mice using antisense oligonucleotide improves hepatic and peripheral insulin action. […] Gene expression was assessed with taqman probes for MSI1 and MSI2. […] Colonies were counted 21 days after the first ASO treatment. […] Tumor measurements were recorded every 3 days. […]

In data set [1] the test system is REM2-KPf/fC pancreatic tumors. The data set can be described thus: In vivo drug therapy of tumor-bearing REM2-KPf/fC mice, reporter frequency by flow cytometry. More on the design: species or system mouse. The following applies: increasing doses (200 or 500 mg/kg IP). The source says: The development of the reporter gave us a unique opportunity to determine whether it could be used as a new image based tool to identify therapy resistant cells in pancreatic cancer. The chemotherapeutic agent gemcitabine remains the standard of care for adjuvant treatment of pancreatic cancer and is the most commonly used single agent in the treatment of advanced disease. Despite this, clinical response rates to gemcitabine are below 10% and it fails to prevent relapse after surgery in 85% of patients. Gemcitabine was delivered to tumor-bearing REM2-KPf/fC mice in vivo at increasing doses to determine the composition of residual disease. […] Importantly, these experiments identify Msi reporter positive cells as the predominant gemcitabine resistant population.
9-10 week old REM2-KP^f/fC mice were treated with Gemcitabine alone or in combination with Crizotinib or iBet762 for 6 days. On day 6, tumors were removed, dissociated (as described above), counted for total cellular content, stained with anti-mouse EpCAM antibody and analyzed for reporter expression by flow cytometry. Gemcitabine (Sigma, G6423) was resuspended in H2O at 20 mg/ml and delivered at 200 mg/kg or 500 mg/kg by IP injection twice over 6 days (on day 0 and 3). […]
Background: Flow cytometry measures light scatter and fluorescence of single cells or particles in a stream.

For data set [2], the system named is Msi2 Reporter KPf/fC cells. The data set can be described thus: In vitro gemcitabine treatment with live imaging of Msi2 reporter KPf/fC cells. It counts as cell-based, mouse. Conditions: 10 μM gemcitabine, imaged up to 48 h.
The subject of another data set is pancreatic cancer. Conditions: cited from earlier work.

“Also recorded” adds a separate entry of the source. Where a name gives a salt, the structure may show the parent alone. k = constrained ethyl (cEt); d = 2'-deoxy (DNA)

Text for blast crisis CML cells: To account for any differences in cell survival between GFP+ and GFP− cells that is solely due to differences in differentiation status, we specifically analyzed cell survival of GFP+ and GFP− leukemia cells within the lineage-negative (Lin−) fraction.
To account for any differences in cell survival between GFP^+ and GFP^− cells that is solely due to differences in differentiation status, we specifically analyzed cell survival of GFP^+ and GFP^− leukemia cells within the lineage-negative (Lin^−) fraction.
Cells were then washed and stained with antibodies against lineage markers. Apoptosis assays were performed by staining cells with Annexin-V (BD Pharmingen).

For `Cc1ccc(NC(=O)c2ccc(CN3CCN(C)CC3)cc2)cc1Nc1nccc(-c2cccnc2)n1` [imatinib, imatinib mesylate], the “GFP+ leukemic cell population remaining following imatinib treatment” value in the data set on blast crisis CML (calvarium, femur, tibia, sternum or pelvis) is reported as about 37%; in the data set with blast crisis CML (spleen), about 60%. In addition, in the data set on blast crisis CML cells, the “Increase in difference in cell survival between Lin− GFP+ and Lin− GFP− cells following imatinib treatment” value is recorded as 3 fold.
For “5′-GGCTACTACGCCGTCA-3′ (sugars from the 5' end k3 d10 k3, backbone and methylation of C not given here) [Control ASOs]”, in the data set with MSI1 RNA, the “MSI1 expression in cell lines after ASO treatment” value is listed as “did not suppress MSI1 expression”.
In the case of `Nc1ccn([C@@H]2O[C@H](CO)[C@@H](O)C2(F)F)c(=O)n1` [gemcitabine, Gemcitabine], in data set [1], the “Effect on GFP+ (Msi2 reporter+) tumor cells” value was “resistant and remained viable; also recorded: preferential survival”; the “Effect on GFP− (Msi2 reporter−) tumor cells” value is “sensitive to gemcitabine and were preferentially eliminated”. Besides, the “Msi2 expression in Msi2 reporter− KPf/fC cells after in vitro treatment” value in data set [2] was “do not turn on Msi2 expression”. Also, the “Patients in whom it fails to prevent relapse after surgery” value in the data set with pancreatic cancer (adjuvant) was 85%. Besides, the Clinical response rates entry with pancreatic cancer (pancreatic cancer patients) was “below 10%”.
As for “5′-TTACATATGATACAGG-3′ (sugars from the 5' end k3 d10 k3, backbone and methylation of C not given here) [ASO-2]”, the “MSI1 expression in cell lines after ASO treatment” value in the data set on MSI1 RNA was “inhibited MSI1 expression”.
